Measurements taken from patent publication US11236084B2, “Substituted azaindoline derivatives as NIK inhibitors” (Janssen Pharmaceutica NV, priority 2017, dated 2022).
Like-named read-outs stand apart in the source and are kept apart here.

Molecular target: recombinant human NF-kappaB-inducing kinase (NIK/MAP3K14) (Homo sapiens, UniProt Q99558)
Experiment: Biological Assay B: inhibition of auto-phosphorylation of recombinant human NIK/MAP3K14 (AlphaScreen), performed at 2 locations
Type: biochemical
Settings: averaged values
Experimental: Inhibition of Auto-Phosphorylation of Recombinant Human NF-kappaB-Inducing Kinase (NIK/MAP3K14) Activity (AlphaScreen®)
NIK/MAP3K14 auto-phosphorylation activity was measured using the AlphaScreen® (αscreen) format (Perkin Elmer). All compounds tested were dissolved in dimethyl sulfoxide (DMSO) and further dilutions were made in assay buffer. Final DMSO concentration was 1% (v/v) in assays. Assay buffer was 50 mM Tris pH 7.5 containing 1 mM EGTA (ethylene glycol tetraacetic acid), 1 mM DTT (dithiothreitol), 0.1 mM Na3VO4, 5 mM MgCl2, 0.01% Tween® 20. Assays were carried out in 384 well Alphaplates (Perkin Elmer). Incubations consisted of compound, 25 microM Adenosine-5′-triphosphate (ATP), and 0.2 nM NIK/MAP3K14. Incubations were initiated by addition of GST-tagged NIK/MAP3K14 enzyme, carried out for 1 h at 25° C. and terminated by addition of stop buffer containing anti-phospho-IKK Ser176/180 antibody. Protein A Acceptor and Glutathione-Donor beads were added before reading using an EnVision® Multilabel Plate Reader (Perkin Elmer). Signal obtained in the wells containing blank samples was subtracted from all other wells and IC50's were determined by fitting a sigmoidal curve to % inhibition of control versus Log10 compound concentration.
Assay B was performed at 2 different locations.
Data for the compounds of the invention in the above assays are provided in Table A (the values in Table are averaged values over all measurements on all batches of a compound; values as IC50 (nM)). (‘n.c.’ means not calculated: ‘Co.’ means compound)

[1] = location 2, AlphaScreen auto-phosphorylation, read-out: Assay B location 2 IC50
[2] = location 1, AlphaScreen auto-phosphorylation, read-out: Assay B location 1 IC50
[3] = location 1, NIK auto-phosphorylation, AlphaScreen, read-out: Assay B location 1 IC50

recombinant human NF-kappaB-inducing kinase (NIK/MAP3K14), sequence (Q99558 whole entry): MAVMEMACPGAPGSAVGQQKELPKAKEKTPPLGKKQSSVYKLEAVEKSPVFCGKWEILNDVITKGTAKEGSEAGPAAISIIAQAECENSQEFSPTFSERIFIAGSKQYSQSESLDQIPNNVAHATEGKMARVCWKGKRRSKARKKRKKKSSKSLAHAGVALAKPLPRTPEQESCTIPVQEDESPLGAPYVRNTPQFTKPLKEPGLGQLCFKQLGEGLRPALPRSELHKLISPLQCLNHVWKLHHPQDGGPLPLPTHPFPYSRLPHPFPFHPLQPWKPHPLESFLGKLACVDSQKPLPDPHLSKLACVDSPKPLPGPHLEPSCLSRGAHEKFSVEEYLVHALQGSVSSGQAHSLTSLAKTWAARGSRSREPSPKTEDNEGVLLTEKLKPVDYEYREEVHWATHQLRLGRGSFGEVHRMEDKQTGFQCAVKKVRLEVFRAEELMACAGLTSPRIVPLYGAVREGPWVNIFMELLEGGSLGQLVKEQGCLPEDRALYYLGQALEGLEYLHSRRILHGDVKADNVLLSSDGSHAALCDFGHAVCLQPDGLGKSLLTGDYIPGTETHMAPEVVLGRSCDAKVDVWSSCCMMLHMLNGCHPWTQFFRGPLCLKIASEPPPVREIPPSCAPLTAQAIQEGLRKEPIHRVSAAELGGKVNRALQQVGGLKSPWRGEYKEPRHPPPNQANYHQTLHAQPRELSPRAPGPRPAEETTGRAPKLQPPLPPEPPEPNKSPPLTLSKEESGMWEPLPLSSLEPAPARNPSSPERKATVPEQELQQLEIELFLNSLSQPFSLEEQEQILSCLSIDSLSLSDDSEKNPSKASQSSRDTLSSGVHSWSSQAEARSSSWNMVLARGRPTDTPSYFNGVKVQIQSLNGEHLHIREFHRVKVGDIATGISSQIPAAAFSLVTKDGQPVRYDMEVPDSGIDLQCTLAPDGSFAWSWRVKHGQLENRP

| IC50 [1] [nM] | IC50 [2] [nM] | IC50 [3] [nM] | IC50 (location 2, NIK auto-phosphorylation, AlphaScreen, read-out: Assay B location 2 IC50) [nM] | SMILES |
| --- | --- | --- | --- | --- |
| 2.2 |  |  |  | COc1ccc(Br)cc1Nc1nccc(-c2cnc3c(c2)C(C)(CO)CN3)n1 (stereo not drawn) [Compound 181] |
| 1 | 4.7 |  |  | COc1cc(N2CCC(N(C)C)C2)c(Cl)cc1Nc1nccc(-c2cnc3c(c2)C(C)(CO)CN3)n1 (stereo not drawn) [Compound 278] |
| 1.7 | 1.6 |  |  | COc1cc(C2CCN(C)CC2)c(Cl)cc1Nc1nccc(-c2cnc3c(c2)C(C)(CO)CN3)n1 (stereo not drawn) [Compound 317] |
| 5.6 |  |  |  | COc1ccc(Nc2nccc(-c3cnc4c(c3)C(C)(CO)CN4)n2)c(OC)c1 (stereo not drawn) [Compound 164] |
| 12.3 |  |  |  | COc1cc(N2CCOCC2)ccc1Nc1nccc(-c2cnc3c(c2)C(C)(CO)CN3)n1 (stereo not drawn) [Compound 171] |
| 26.3 |  |  |  | COc1cc(OC2CCN(C)CC2)ccc1Nc1nccc(-c2cnc3c(c2)C(C)(CO)CN3)n1 (stereo not drawn) [Compound 228] |
| 47.9 |  |  |  | Cc1cc(N2CCOCC2)ccc1Nc1nccc(-c2cnc3c(c2)C(C)(CO)CN3)n1 (stereo not drawn) [Compound 216] |
| 2.6 |  |  |  | COc1ccc(Cl)c(Nc2nccc(-c3cnc4c(c3)C(C)(CO)CN4)n2)c1 (stereo not drawn) [Compound 222] |
| 1.6 | 13.4 |  |  | COc1cc(N2CC3(CCOCC3)C2)c(C#N)cc1Nc1nccc(-c2cnc3c(c2)C(C)(CO)CN3)n1 (stereo not drawn) [Compound 372] |
| 1.6 | 7.8 |  |  | COc1cc(N2CC3(CCOCC3)C2)c(F)cc1Nc1nccc(-c2cnc3c(c2)C(C)(CO)CN3)n1 (single isomer, unassigned) [Compound 7S] |
| 4.8 | 13.8 |  |  | COc1cc(N2CCN(C)CC2)c(Cl)cc1Nc1nccc(-c2cnc3c(c2)C(C)(CO)CN3)n1 (single isomer, unassigned) [Compound 303] |
| 38 |  |  |  | CCc1ccc(OC)c(Nc2nccc(-c3cnc4c(c3)C(C)(CO)CN4)n2)c1 (stereo not drawn) [Compound 206] |
| 4 |  |  |  | CC1(CO)CNc2ncc(-c3ccnc(Nc4cc(Cl)ccc4Cl)n3)cc21 (stereo not drawn) [Compound 196] |
| 309 | 708 |  |  | CN(C)CCOc1cc(N2CCOCC2)c(F)cc1Nc1nccc(-c2cnc3c(c2)C(C)(CO)CN3)n1 (single isomer, unassigned) [Compound 297] |
| 41.7 | 72.4 |  |  | CC1(CO)CNc2ncc(-c3ccnc(Nc4cccc(Cl)c4Cl)n3)cc21 (stereo not drawn) [Compound 227] |
| 132 |  |  |  | COc1cc(C2COCCN2C)ccc1Nc1nccc(-c2cnc3c(c2)C(C)(CO)CN3)n1 (stereo not drawn) [Compound 200] |
| 0.5 | 1.5 |  |  | CCN1CCN(c2cc(OC)c(Nc3nccc(-c4cnc5c(c4)C(C)(CO)CN5)n3)cc2Cl)CC1 (single isomer, unassigned) [Compound 293] |
| 27.5 |  |  |  | COc1cc(N2CCC(F)(F)CC2)ccc1Nc1nccc(-c2cnc3c(c2)C(C)(CO)CN3)n1 (stereo not drawn) [Compound 217] |
| 1.3 |  |  |  | COc1ccc(C#N)cc1Nc1nccc(-c2cnc3c(c2)C(C)(CO)CN3)n1 (single isomer, unassigned) [Compound 248] |
|  |  | 33.9 |  | COc1cc(C(=O)NC2CCOCC2)ccc1Nc1ncc(F)c(-c2cnc3c(c2)C(C)(CO)CN3)n1 (single isomer, unassigned) [Compound 352] |
| 31.6 |  |  |  | COCCN(C)c1cc(OC)c(Nc2nccc(-c3cnc4c(c3)C(C)(CO)CN4)n2)cc1Cl (single isomer, unassigned) [Compound 5R] |
| 12 |  |  |  | COc1cc(-c2ncc[nH]2)ccc1Nc1nccc(-c2cnc3c(c2)C(C)(CO)CN3)n1 (stereo not drawn) [Compound 163] |
|  |  |  | 1.6 | CCN1CCN(Cc2cc(OC)c(Nc3nccc(-c4cnc5c(c4)C(C)(CO)CN5)n3)cc2Cl)CC1 (stereo not drawn) [Compound 337] |
| 15.1 |  |  |  | COc1cc(OCCN2CCOCC2)ccc1Nc1nccc(-c2cnc3c(c2)C(C)(CO)CN3)n1 (stereo not drawn) [Compound 218] |

| IC50 [1] [nM] | IC50 [2] [nM] | IC50 [3] [nM] | IC50 (location 2, NIK auto-phosphorylation, AlphaScreen, read-out: Assay B location 2 IC50) [nM] | SMILES |
| --- | --- | --- | --- | --- |
| 3.6 |  |  |  | COc1cc(N2CCC(C#N)CC2)c(Cl)cc1Nc1nccc(-c2cnc3c(c2)C(C)(CO)CN3)n1 (stereo not drawn) [Compound 245] |
| 3.8 |  |  |  | COc1cc(CCO)ccc1Nc1nccc(-c2cnc3c(c2)C(C)(CO)CN3)n1 (stereo not drawn) [Compound 185] |
| 0.7 | 4.5 |  |  | CCN1CCN(c2cc(OC)c(Nc3nccc(-c4cnc5c(c4)C(C)(CO)CN5)n3)cc2Cl)CC1 (stereo not drawn) [Compound 268] |
| 2.8 | 5.3 |  |  | COc1cc(OC2CCN(C)CC2)c(F)cc1Nc1nccc(-c2cnc3c(c2)C(C)(CO)CN3)n1 (stereo not drawn) [Compound 283] |
| 3.7 | 7.8 |  |  | Cc1cc(N2CCOCC2)c(Cl)cc1Nc1nccc(-c2cnc3c(c2)C(C)(CO)CN3)n1 (stereo not drawn) [Compound 361] |
| 8.5 |  |  |  | Cc1ccc(F)cc1Nc1nccc(-c2cnc3c(c2)C(C)(CO)CN3)n1 (stereo not drawn) [Compound 198] |
| 3.6 | 6.5 |  |  | COc1cc(N2CCOCC2)c(F)cc1Nc1nccc(-c2cnc3c(c2)C(C)(CO)CN3)n1 (single isomer, unassigned) [Compound 254] |
| 4.1 | 6.3 |  |  | COCCN(C)c1cc(OC)c(Nc2nccc(-c3cnc4c(c3)C(C)(CO)CN4)n2)cc1Cl (stereo not drawn) [Compound 5] |
| 2.3 | 8.1 |  |  | COc1cc(N2CC(OC)C2)c(F)cc1Nc1nccc(-c2cnc3c(c2)C(C)(CO)CN3)n1 (single isomer, unassigned) [Compound 298] |
| 7.2 | 8.3 |  |  | CC1(CO)CNc2ncc(-c3ccnc(Nc4cc(F)c(N5CCOCC5)cc4Cl)n3)cc21 (single isomer, unassigned) [Compound 261] |
| 23.4 |  |  |  | COc1cc(CN2CCOCC2)ccc1Nc1nccc(-c2cnc3c(c2)C(C)(CO)CN3)n1 (stereo not drawn) [Compound 165] |
| 13.8 | 35.5 |  |  | COc1cc(N2CC3(CCOCC3)C2)ccc1Nc1nccc(-c2cnc3c(c2)C(C)(CO)CN3)n1 (stereo not drawn) [Compound 242] |
| 1.7 |  |  |  | COc1cc(N2CC(O)C2)c(Cl)cc1Nc1nccc(-c2cnc3c(c2)C(C)(CO)CN3)n1 (stereo not drawn) [Compound 302] |
| 209 | 437 |  |  | CN(C)CCOc1cc(N2CCOCC2)c(Cl)cc1Nc1nccc(-c2cnc3c(c2)C(C)(CO)CN3)n1 (stereo not drawn) [Compound 371] |
| 22.4 | 38 |  |  | CC1(CO)CNc2ncc(-c3ccnc(Nc4ccccc4OC4CCOCC4)n3)cc21 (stereo not drawn) [Compound 247] |
| 3 | 15.9 |  |  | Cc1cc(N2CC3(CCOCC3)C2)c(F)cc1Nc1nccc(-c2cnc3c(c2)C(C)(CO)CN3)n1 (stereo not drawn) [Compound 281] |
| 8.9 |  |  |  | COc1cc(-c2cnn(C)c2)ccc1Nc1nccc(-c2cnc3c(c2)C(C)(CO)CN3)n1 (stereo not drawn) [Compound 169] |
| 3.4 |  |  |  | COc1ccc(C)cc1Nc1nccc(-c2cnc3c(c2)C(C)(CO)CN3)n1 (stereo not drawn) [Compound 184] |
| 2.6 | 10.2 |  |  | COc1cc(N2CCN(C)CC2)c(F)cc1Nc1nccc(-c2cnc3c(c2)C(C)(CO)CN3)n1 (stereo not drawn) [Compound 271] |
| 10 |  |  |  | COc1ccc(C(F)(F)F)cc1Nc1nccc(-c2cnc3c(c2)C(C)(CO)CN3)n1 (stereo not drawn) [Compound 173] |
| 1.1 |  |  |  | COc1cc(CO)c(Cl)cc1Nc1nccc(-c2cnc3c(c2)C(C)(CO)CN3)n1 (stereo not drawn) [Compound 332] |
| 13.8 | 77.6 |  |  | COc1cc(N2CCOCC2)c(F)cc1Nc1nccc(-c2cnc3c(c2)C(C)(C)CN3)n1 [Compound 282] |
|  |  | 14.8 |  | COc1cc(N2CC3(CCOCC3)C2)c(Cl)cc1Nc1ncc(Cl)c(-c2cnc3c(c2)C(C)(CO)CN3)n1 (single isomer, unassigned) [Compound 348] |
| 2.5 |  |  |  | COc1ccc(C)c(Nc2nccc(-c3cnc4c(c3)C(C)(CO)CN4)n2)c1 (stereo not drawn) [Compound 220] |
